The results in this text go back to patent US7629315B2, “Compositions for blocking the inhibitory effect of human CRP on human leptin” (University of Pittsburgh of the Commonwealth System of …, priority 2005, dated 2009).

What is called Kd is the equilibrium constant for the complex coming apart.

In assay [1] the target is T1, long-form human leptin receptor, OB-Rb (Homo sapiens, UniProt P48357).
T1 construct: expressed in transfected cells
T1 sequence (P48357 22-1165): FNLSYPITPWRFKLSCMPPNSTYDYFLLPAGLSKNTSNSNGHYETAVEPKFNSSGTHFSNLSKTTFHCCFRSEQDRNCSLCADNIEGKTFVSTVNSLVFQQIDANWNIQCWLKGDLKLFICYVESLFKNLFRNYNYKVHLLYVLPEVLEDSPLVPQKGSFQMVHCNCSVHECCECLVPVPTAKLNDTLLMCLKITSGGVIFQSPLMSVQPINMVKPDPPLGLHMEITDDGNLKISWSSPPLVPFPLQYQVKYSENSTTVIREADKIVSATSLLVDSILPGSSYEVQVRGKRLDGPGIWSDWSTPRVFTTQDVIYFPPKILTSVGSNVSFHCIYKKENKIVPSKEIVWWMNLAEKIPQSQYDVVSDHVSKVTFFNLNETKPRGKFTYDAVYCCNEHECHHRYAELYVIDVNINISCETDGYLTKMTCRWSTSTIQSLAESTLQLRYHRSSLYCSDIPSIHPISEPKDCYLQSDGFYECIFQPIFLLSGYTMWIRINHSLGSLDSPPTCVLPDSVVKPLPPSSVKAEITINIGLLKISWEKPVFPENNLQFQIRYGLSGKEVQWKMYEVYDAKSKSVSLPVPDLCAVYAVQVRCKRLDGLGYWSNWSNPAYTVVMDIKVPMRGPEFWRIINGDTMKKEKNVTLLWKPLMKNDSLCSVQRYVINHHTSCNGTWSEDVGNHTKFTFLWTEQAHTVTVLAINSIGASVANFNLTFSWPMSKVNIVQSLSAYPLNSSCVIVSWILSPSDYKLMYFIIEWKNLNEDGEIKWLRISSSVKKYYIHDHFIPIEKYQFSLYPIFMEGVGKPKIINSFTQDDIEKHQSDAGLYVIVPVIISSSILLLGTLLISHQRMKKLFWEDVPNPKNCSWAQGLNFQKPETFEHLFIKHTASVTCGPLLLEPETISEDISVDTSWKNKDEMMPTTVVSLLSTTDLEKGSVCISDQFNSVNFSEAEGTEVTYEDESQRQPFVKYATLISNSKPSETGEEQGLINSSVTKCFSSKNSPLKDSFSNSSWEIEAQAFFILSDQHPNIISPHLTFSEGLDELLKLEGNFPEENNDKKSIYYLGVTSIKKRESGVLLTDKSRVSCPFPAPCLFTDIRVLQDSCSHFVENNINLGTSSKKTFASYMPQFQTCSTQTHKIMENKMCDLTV
The assay can be described thus: 125I-leptin binding to HEK293 cells stably transfected with OB-Rb. As to conditions: HEK293 cell line stably transfected with OB-Rb; read-out: Kd for leptin and its receptors. As to the method: 4. Measurement of IC50 for human CRP against human leptin: Human leptin was iodinated with Na^125I using the lodogen method. Briefly, 15 μg of human leptin in 100 mM Phosphate buffer pH 7.5 were incubated with 1 mCi of carrier-free Na^125I (2200 Ci/mmol) in a glass tube containing 50 μg Iodogen. After 10 minute incubation at room temperature, the reaction was stopped with 100 μl 0.1% trifluoroacetic acid (TFA). The reaction mixture was immediately purified by reverse-phase HPLC. The separation employed a 5 minute isocratic step at 20% eluant B in A, followed by two consecutive 30 minute linear gradients from 20 to 50%, then from 50 to 60% eluant B in A (where eluant A is water containing 0.1% TFA and eluant B is acetonitrile containing 0.1% TFA) at a flow rate of 1.5 ml/min. The ^125I-labeled leptin (˜2 ng/ml) was pre-incubated with various concentrations of human CRP in 1 ml of μ-MEM for 30 minute before added to the OBR-expressing HEK293 cells. The incubation would last for 3 hours at 4° C. before the media was aspirated and the cells were dissolved in 0.1N NaOH for scintillation counting.
To examine if human CRP interferes with the binding of human leptin to its receptors, we used a HEK293 cell line stably transfected with the long-form human leptin receptor, OB-Rb. The characterization of this cell line has been reported in earlier studies. M. Friedman-Einat et al., 2003, Regul. Pept. […]

Assay [2] concerns human primary hepatocytes. The assay can be described thus: Leptin-stimulated CRP expression in human primary hepatocytes in vitro. The class given is cell-based.
For assay [3], the system named is ob/ob mice. The assay can be described thus: Infusion of human CRP and/or human leptin by osmotic pumps into ob/ob mice. In kind it is in vivo, mouse. As to the method: 3(a). In vivo assessment of CRP functions: The micro-osmotic pumps (#1007D, DURECT, Cupertino, Calif.) were subcutaneously imbedded in the ob/ob or wild-type mice according to the instructions of the manufacturer. The osmotic pumps were pre-filled with saline, CRP, leptin or leptin plus CRP. Food-intake (24-h), body weight, and body temperature were monitored daily post-surgery. Blood glucose concentrations were measured from the tail-vein blood samples right before and at the end of infusion with a Precision Plus glucose meter (Medisense, Abbot Park, Ill.).
3(b) Assessment of serum leptin insulin, and CRP: Human- and mouse-leptin concentrations were measured with the ELISA kit from CHEMICON (Temecular, Calif.) and R&D Systems (Minneapolis, Minn.), respectively, according to the instructions of the manufacturer. Serum mouse insulin concentrations were determined with an ELISA assay (LINCO Research, St. Charles, Mo.). Human CRP concentrations were also evaluated with an ELISA kit (Alpha Diagnostics International, San Antonio, Tex.).
3(c) Measurement of serum- and tissue-triglycerides: Serum- and tissue-triglycerides were determined with the protocols described in J. N. Huan et al., 2003, J. Biol. Chem. 278, 45638. […]

Assay [4] has as its system mice. The assay can be described thus: Continuous infusion of leptin in mice, plasma SAP. The class given is in vivo, mouse. As to conditions: elevation of serum leptin through continuous infusion in mice.
The test system of assay [5] is lean and healthy humans. The assay can be described thus: Injection of leptin in lean and healthy humans, plasma CRP. In kind it is in vivo, human.
Assay [6] deals with leptin. The assay can be described thus: Immunoprecipitation of mouse SAP with leptin. The class given is binding.
Setting [7] is: human leptin alone, 6-day continuous infusion.

As to “human leptin: recombinant human leptin, adipocyte hormone (SEQ ID NO:4)”, the Kd in assay [1] is 1 nM. For the same molecule, the “expression of CRP” value in assay [2] is “stimulates expression of CRP”. In assay [3] (setting [7]), the body weight result is “produced the expected reduction in food-intake and body weight”; the food-intake result was “produced the expected reduction in food-intake and body weight”. Moreover, in assay [3] (leptin alone), the blood glucose entry was “lowering”, the hepatic triglyceride result is given as “lowering”, the plasma insulin result is listed as “lowering” and the serum triglyceride result is on record as “lowering”. Besides, the “plasma concentrations of SAP” value in assay [4] is on record as “increased plasma concentrations of SAP in mice”. For the same molecule, the “plasma CRP concentrations” value in assay [5] is “leads to elevation of plasma CRP concentrations”.

B1: mouse SAP: mouse pentraxin-like serum amyloid P component structurally similar to CRP (protein)
chain: QTDLKRKVFVFPRESETDHVKLIPHLEKPLQNFTLCFRTYSDLSRSQSLFSYSVKGRDNELLIYKEKVGEYSLYIGQSKVTVRGMEEYLSPVHLCTTWESSSGIVEFWVNGKPWVKKSLQREYTVKAPPSIVLGQEQDNYGGGFQRSQSFVGEFSDLYMWDYVLTPQDILFVYRDSPVNPNILNWQALNYEINGYVVIRPRVWD
On to B1, for which the “binding of leptin (immunoprecipitation)” value in assay [6] is reported as “leptin binds to mouse SAP”.
